Measurements as given in patent US20110224247A1, “AZAISOQUINOLINONE DERIVATIVES AS NK3 ANTAGONISTS” (H. LUNDBECK A/S, priority 2010, published 2011).

Key:
human NK3 receptor = molecular target: T1, human NK3 receptor (Homo sapiens, UniProt P29371); experiment: NK3 receptor binding assay; conditions: filter-based competition binding vs ~0.05 nM 3H-AE93103, membranes of BHK cells expressing human NK3; Ki by Cheng Prusoff; read-out: Affinity (Ki/nM)
T1 construct: expressed in transfected cells; membranes prepared
T1 sequence (P29371 1-465): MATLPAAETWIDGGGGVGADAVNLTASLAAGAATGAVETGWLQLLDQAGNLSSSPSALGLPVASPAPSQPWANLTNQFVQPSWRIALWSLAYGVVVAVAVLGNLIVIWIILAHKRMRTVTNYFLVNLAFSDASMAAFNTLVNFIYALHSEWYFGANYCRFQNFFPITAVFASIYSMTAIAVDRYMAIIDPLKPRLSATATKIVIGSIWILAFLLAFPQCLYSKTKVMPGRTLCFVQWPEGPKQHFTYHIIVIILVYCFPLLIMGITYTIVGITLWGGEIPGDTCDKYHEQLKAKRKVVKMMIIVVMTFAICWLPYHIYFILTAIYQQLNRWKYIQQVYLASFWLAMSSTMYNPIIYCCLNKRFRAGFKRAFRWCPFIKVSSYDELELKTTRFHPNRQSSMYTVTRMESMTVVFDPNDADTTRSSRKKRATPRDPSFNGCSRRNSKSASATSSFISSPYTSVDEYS
Protocol: Membranepreparation: BHK cells stably expressing the human NK3 receptor were seeded in harvesting plates in Dulbeccos MEM containing GlutaMax (862 mg/l), 1 mM sodium pyruvate, 10% fetal calf serum, 1% Pen/Strep, 1 mg/ml G418 and were grown at 34° C. in a humidified atmosphere containing 10% CO2. To increase receptor expression, 10 μM trichotatin A was added to the media 24 hours before harvest of the cells at a confluency of app 90%. Prior to the harvesting, the cells were washed twice with PBS without Mg^2+ and Ca^2+ and subsequently scrapped of in 10 ml PBS pr harvesting plate. The cells suspension were centrifuged at 1500×G in three minutes before resuspension in 15 mM Tris-HCl pH 7,5 buffer containing 2 mM MgCl2; 0,3 mM EDTA and 1 mM EGTA (buffer A). The cell suspention was homogenised and subsequently centrifuged at 40000×G in 30 minutes. The membrane-pellet was resuspended in buffer A containing 250 mM sucrose, alliquoted and stored at −80° C.
Affinity assay description: The assay is performed as a filter-based competition-binding in a 50 mM Tris pH 7.4 assay buffer containing 120 mM NaCl and 3 mM MnCl2. App 0.05 nM ^3H-AE93103 was mixed with test compounds before addition of 0.15 μg of a homogenised NK3 membrane preparation in a total volume of 300 μl. The assay plate is incubated for 90 min at RT before content of the wells is transferred using a cell-harvester to GF/C filter plates, which has been pretreated with 0.1% PEI. The filter is washed 3 times with 1 ml an ice-cold 50 mM Tris buffer, pH 7,4. The filter is dried and added scintillation liquid before the plate is counted in a topcounter 5 minutes pr well.
The total binding, which comprised less than 10% of added radioligand, was defined using assay buffer whereas the non-specific binding was defined in the presence of 1 μM SR142801. The non-specific binding constituted ˜10% of the total binding. Data points are expressed in percent of the specific binding of ^3H-AE93103 and the […] (concentration causing 50% inhibition of ^3H-AE93103 specific binding) are determined by non-linear regression analysis using a sigmoidal variable slope curve fitting.

[1] = cited from earlier work
[2] = cited from earlier work; remark: listed apart in the source
[3] = in vivo; cited from earlier work

SMILES: CCNn1c(C)c(C(=O)N[C@H](c2cccc(F)c2)C2CCC2)c2cnccc2c1=O [Example 1a, 2-Ethylamino-3-methyl-1-oxo-1,2-dihydro-[2,6]naphthyridine-4-carboxylic acid [(S)-cyclobutyl-(3-fluoro-phenyl)-methyl]-amide]
- Ki (human NK3 receptor): 58 nM

SMILES: CCNn1c(C)c(C(=O)N[C@H](c2cccc(F)c2)C2CCC2)c2ncccc2c1=O [Example 2a, 6-Ethylamino-7-methyl-5-oxo-5,6-dihydro-[1,6]naphthyridine-8-carboxylic acid [(S)-cyclobutyl-(3-fluoro-phenyl)-methyl]-amide]
- Ki (human NK3 receptor): 91 nM

SMILES: CCCNn1c(C)c(C(=O)N[C@@H](CC)c2ccccc2)c2cnccc2c1=O [Example 1g, 3-Methyl-1-oxo-2-propylamino-1,2-dihydro-[2,6]naphthyridine-4-carboxylic acid ((S)-1-phenyl-propyl)-amide]
- Ki (human NK3 receptor): 430 nM

SMILES: CC(=O)N(C)C1(c2ccccc2)CCN(CCC[C@]2(c3ccc(Cl)c(Cl)c3)CCCN(C(=O)c3ccccc3)C2)CC1 [Osanetant]
- solubility [1]: poor
- Effect in clinical trials, in particular on positive symptoms of psychosis ([2]; delusions, hallucinations and paranoia): superior to placebo
- bioavailability [3]: poor
- blood-brain barrier penetration [3]: poor
- clearance [3]: relatively high

SMILES: CCCNn1c(C)c(C(=O)N[C@H](c2cccc(F)c2)C2CCC2)c2cnccc2c1=O [Example 1e, 3-Methyl-1-oxo-2-propylamino-1,2-dihydro-[2,6]naphthyridine-4-carboxylic acid [(S)-cyclobutyl-(3-fluoro-phenyl)-methyl]-amide]
- Ki (human NK3 receptor): 33 nM

SMILES: CCCNn1c(C)c(C(=O)N[C@H](c2cccc(Cl)c2)C2CC2)c2cnccc2c1=O [Example 1c, 3-Methyl-1-oxo-2-propylamino-1,2-dihydro-[2,6]naphthyridine-4-carboxylic acid [(S)-(3-chloro-phenyl)-cyclopropyl-methyl]-amide]
- Ki (human NK3 receptor): 540 nM

SMILES: CCCNn1c(C)c(C(=O)N[C@H](c2ccc(F)cc2)C2CC2)c2cnccc2c1=O [Example 1b, 3-Methyl-1-oxo-2-propylamino-1,2-dihydro-[2,6]naphthyridine-4-carboxylic acid [(S)-cyclopropyl-(4-fluoro-phenyl)-methyl]-amide]
- Ki (human NK3 receptor): 720 nM

SMILES: CCCNn1c(C)c(C(=O)NC(c2ccccc2F)C2CCC2)c2cnccc2c1=O (stereo not drawn) [Example 1d, 3-Methyl-1-oxo-2-propylamino-1,2-dihydro-[2,6]naphthyridine-4-carboxylic acid [cyclobutyl-(2-fluoro-phenyl)-methyl]-amide]
- Ki (human NK3 receptor): 160 nM

SMILES: CCNn1c(C)c(C(=O)N[C@H](c2cccc(F)c2)C2CCC2)c2ccncc2c1=O [Example 3a, 2-Ethylamino-3-methyl-1-oxo-1,2-dihydro-2,7-naphthyridine-4-carboxylic acid [(S)-cyclobutyl-(3-fluoro-phenyl)-methyl]-amide]
- Ki (human NK3 receptor): 110 nM

SMILES: CC[C@H](NC(=O)c1c(O)c(-c2ccccc2)nc2ccccc12)c1ccccc1 [talnetant]
- solubility [1]: poor
- Effect on cognitive behaviour of schizophrenics in clinical trials ([2]; schizophrenics): ameliorate the cognitive behaviour
- bioavailability [3]: poor
- blood-brain barrier penetration [3]: poor
- clearance [3]: relatively high
